Our source for the IC50 values is patent publication US6878388B1, “Vanadium compounds for treating proliferative cell disorders” (Parker Hughes Institute, priority 2000, dated 2005).

Where two headings read alike, the source gives them in different places.

Assay [1] has as its system U373 human glioblastoma cells. Description: MTT cytotoxicity assay, U373. As to conditions: 48 h incubation, 3 independent experiments, read-out: IC50 (mean ± SE). In kind it is cell-based. The method, then: Human brain tumor cells lines U87 MG (Cat.# HTB-14), U118 MG (Cat. # HTB-15), U138 (Cat # HTB-16), U373 MG (CAT. # HTB-17), and T98G (Cat. # CRL-1690) and breast cancer cell lines BT-20 (Cat # HTB-19), MDA-MB-231 (Cat # HTB-26), MDA-MB-361 (Cat # HTB-27), and MCF-7 (Cat # HTB-22) were obtained from American Type Culture Collection (ATCC, Rockville, Md.) and maintained as continuous cell lines in Dulbecco's modified Eagles's medium (U87, U118, U138, U373, T98 and BT-20) or Leibovitz's L-15 medium (MDA-MB-231 and MDA-MB-361). All media were supplemented with 10% fetal calf serum (FCS), 4 mM glutamine, 100 U/ml penicillin G and […] streptomycin sulfate. All tissue culture reagents were obtained from Life Technologies Inc. (GIBCO-BRL, Gaithersburg, Md.).
The cytotoxicity of [VO(SO4)(Me2-Phen)2] against human cancer cell lines was analyzed using the MTT (3-[4,5-dimethylthiazol-2-yl]-2,5-diphenyl tetrazolium bromide) assay (Boehringer Mannheim Corp., Indianapolis, Ind.) as described previously (Narla et al., Clin Cancer Res., 4: 1405-1414, 1998). […] The absorbance at 540 nm (a reference wavelength of 690 nm was used) of the solution in each well was measured using a microplate reader (Labsystems). The percent survival and the IC50 values were calculated using Graphpad Prism v2.0 (Graphpad Software, Inc., San Diego, Calif.) as described previously (Narla et al., Supra). […]
Background: Tetrazolium dyes change colour on reduction, which living cells bring about.

For assay [2], the system named is U87 glioblastoma cells. As to the kind of experiment: In vitro adhesion assay to ECM proteins, U87. In kind it is cell-based, human. To be noted: 16 h pretreatment, mean ± SE of 3 experiments. The method, then:
In vitro adhesion assays were used to evaluate the effects of [VO(SO4)(Me2-Phen)2] on the adhesive properties of U87 and MDA-MD-231 cells as described previously (Narla et al., Clin Cancer Res, 4: 2463-2471, 1998). The plates for the adhesion assays were pre-coated with the extracellular matrix (ECM) proteins laminin, fibronectin, vitronectin and type IV collagen (each at a final concentration of 1 μg/ml in PBS) overnight at 4° C. and dried. Exponentially-growing cells (as described in the previous Example) were incubated with [VO(SO4)(Me2-Phen)2] at concentrations ranging from 0.5 μM to 25 μM for 16 hours in a humidified 5% CO2 atmosphere. The cells were then detached from the flasks with 0.05% trypsin (Life Technologies), resuspended in medium, incubated at 37° C. for 2 hours to allow them to recover from the trypsinization stress and examined for their ability to adhere to the plates precoated with ECM proteins. Cells were centrifuged, washed twice with serum-free medium, counted and resuspended in serum-free medium at a final concentration of 2.5×10^5 cells/ml. The cell suspension was added to each well in aliquots of 100 μl and the cells were allowed to adhere for one hour at 37° C. in a humidified 5% CO2atmosphere. The non-adherent cells were removed by gently washing the cells with PBS. The adherent fraction was quantitated using MTT assays as previously described (Narla, Supra).
U87 glioblastoma and MDA-MD-231 breast cancer cells were preincubated with various concentrations of [VO(SO4)(Me2-Phen)2] and processed for adhesion assays. [VO(SO4)(Me2-Phen)2] inhibited adhesion of the U87 and MDA-MB-231 cells to extracellular matrix (ECM) proteins, Pretreatment of cells with [VO(SO4)(Me2-Phen)2] inhibited the adhesion of U87 glioblastoma and MDA-MB-231 breast cancer cells to laminin-, fibronectin-, vitronectin- and collagen-coated plates. The inhibition of glioblastoma cell adhesion was concentration-dependent with mean (±SE) IC50 values from 3 independent experiments shown in the table below.

For `Cc1ccnc2c1ccc1c(C)ccnc12.Cc1ccnc2c1ccc1c(C)ccnc12.O=S(=O)([O-])[O-].[O]=[V+2]` [[VO(SO4)(Me2-Phen)2], bis(4,7-dimethyl-1,10-phenanthroline) sulfatooxovanadium (IV)], the IC50 in assay [1] was found to be 2000 ± 400 nM; in assay [2] (U87, fibronectin-coated plates, read-out: IC50 inhibition of adhesion to fibronectin) it was 1300 nM; in assay [2] (U87, laminin-coated plates, read-out: IC50 inhibition of adhesion to laminin), 1400 ± 100 nM; in assay [2] (U87, type IV collagen-coated plates, read-out: IC50 inhibition of adhesion to collagen) it was 1200 nM; in assay [2] (U87, vitronectin-coated plates, read-out: IC50 inhibition of adhesion to vitronectin) it was 1200 ± 100 nM.

The term IC50 denotes the midpoint of a concentration-inhibition curve.
